In patent US10160785B2, “Antimicrobial peptides and their use for the treatment of topical infections” (priority 2015, dated 2018):
Where a SMILES comes first, the peptide text is derived from it.

Columns and labels:
Assay type in all cases: cell-based
[1] = system: Candida albicans (Olomouc) biofilm; assay: C. albicans biofilm, remaining metabolic activity (XTT)
Outline: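 Candida albicans (Olomouc) biofilms grown 48 h at 37 °C in MOPS-buffered RPMI 1640 from 1×10^6 CFU inocula, then exposed 20 h to peptide at 0.39-200 μmol.l^−1. XTT/PMS staining for 90 min, A540; remaining metabolic activity expressed as percent of untreated biofilm after blank correction.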

[2] = system: Candida albicans ATCC MYA-2876; assay: microbe, parasite or virus in culture; details: RPMI broth microdilution, 35° C., 48 hours, visual
Outline: (§1)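 Five colonies from 24 h cultures were suspended in saline to OD600 0.18 and diluted 1:50 and then 1:20 into RPMI 1640 containing MOPS. This inoculum was mixed 1:1 with peptide dilutions of 0.625–160 μmol.l^−1. After 48 h at 35 °C, the MIC was scored by eye as the first well lacking growth.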

Candida glabrata DSY 565 = assay: microbe, parasite or virus in culture; details: RPMI broth microdilution, 35° C., 48 hours, visual
Outline: as §1

[3] = system: Candida dubliniensis ATCC MYA-646; assay: microbe, parasite or virus in culture; details: RPMI broth microdilution, 35° C., 48 hours, visual
Outline: as §1

[4] = system: Candida tropicalis ATCC 750; assay: microbe, parasite or virus in culture; details: RPMI broth microdilution, 35° C., 48 hours, visual
Outline: as §1

Candida krusei ATCC 6258 = assay: microbe, parasite or virus in culture; details: RPMI broth microdilution, 35° C., 48 hours, visual
Outline: as §1

[5] = system: Candida glabrata ATCC 2001; assay: microbe, parasite or virus in culture; details: RPMI broth microdilution, 35° C., 48 hours, visual
Outline: as §1

[6] = system: Candida albicans (Olomouc); assay: microbe, parasite or virus in culture; details: RPMI broth microdilution, 35° C., 48 hours, visual
Outline: as §1

Compound: CCCC[C@H](NC(=O)[C@H](CC(C)C)NC(=O)[C@H](CO)NC(=O)[C@H](CO)NC(=O)[C@H](CCCC)NC(=O)[C@@H](NC(=O)CN)[C@@H](C)CC)C(=O)N[C@@H](CCCCN)C(=O)N[C@@H](CCCCN)C(=O)N[C@@H](CC(C)C)C(=O)N[C@@H](CCCCN)C(=O)N[C@@H](CCCCN)C(=O)N[C@H](C(=O)N[C@H](C(=O)N[C@@H](C)C(=O)N[C@@H](CCCCN)C(N)=O)[C@@H](C)CC)[C@@H](C)CC [V] (HELM PEPTIDE1{G.I.[Nle].S.S.L.[Nle].K.K.L.K.K.I.I.A.K.[am]}$$$$V2.0)
- Metabolic activity of C. albicans (%) ([1]; peptide concentration 6.25 μmol · l^−1, 20 hours): 106.4%
- Metabolic activity of C. albicans (%) ([1]; peptide concentration 12.5 μmol · l^−1, 20 hours): 89.5%
- Metabolic activity of C. albicans (%) ([1]; peptide concentration 25 μmol · l^−1, 20 hours): 45.0%
- Metabolic activity of C. albicans (%) ([1]; peptide concentration 50 μmol · l^−1, 20 hours): 6.9%
- Metabolic activity of C. albicans (%) ([1]; peptide concentration 100 μmol · l^−1, 20 hours): 2.4%
- Metabolic activity of C. albicans (%) ([1]; peptide concentration 200 μmol · l^−1, 20 hours): 0.4%
- Antifungal activity MIC C. albicans ATCC MYA-2876 [2]: 19.0 µM
- Antifungal activity MIC C. glabrata DSY 565 (Candida glabrata DSY 565): 44.0 µM
- Antifungal activity MIC C. dubliniensis ATCC MYA-646 [3]: 26.0 µM
- Antifungal activity MIC C. tropicalis ATCC 750 [4]: 1.0 µM
- Antifungal activity MIC C. krusei ATCC 6258 (Candida krusei ATCC 6258): 5.0 µM
- Antifungal activity MIC C. glabrata ATCC 2001 [5]: 24.0 µM
- Antifungal activity MIC C. albicans Olomouc [6]: 12.0 µM
